According to patent publication US5278308A, “Iodine derivatives of tetrabenazine” (The Trustees of The University of Pennsylvania, priority 1992, dated 1994):
Where two headings read alike, the source gives them in different places. Values belong to the molecule of their own block, whether it stands above or below them.

Experiments:
[1] = tested on: monoamine uptake-storage mechanism of amine granules in the synapse; details: in vivo; cited from earlier work
[2] = up to 300 mg daily, several trials; cited from earlier work
[3] = tested on: monoamine transporter of chromaffin granules and CNS synaptic vesicles; details: cited from earlier work
[4] = Regional brain distribution in rats (dissection, iv injection); type: in vivo; details: for Regional brain uptake, cerebellum / Regional brain uptake, cortex / Regional brain uptake, hippocampus / Regional brain uptake, striatum / tissue uptake at 2 min / tissue uptake at 0.5 h / tissue uptake at 4 h / tissue uptake at 6 h / tissue uptake at 16 h: rat; for tissue uptake at 0.5 h: 30 min; for tissue uptake at 4 h: 240 min; for tissue uptake at 6 h: 2 rats only
Experimental: Regional brain distribution of [^123 I]I-TBZ (with either a racemic mixture, peak A or B) in rats was obtained after an iv injection. By dissecting, weighing and counting samples from different brain regions (cortex, striatum, hippocampus and cerebellum), % dose/gram of the samples was calculated by comparing the sample counts with the counts of the diluted initial dose. The ratio of uptake in each region was obtained by dividing % dose/gram of each region with that of the cerebellum. The effect of tetrahydrobenazine on the uptake of peak A or peak B was investigated by pretreating the rats with the TBZ 3 mg/rat at 3 min before iv injection of [^123 I]I-TBZ. At 20 min. post injection the rats were dissected and the regional brain dissection was carried out as above.

[5] = Biodistribution in rats (iv injection); type: in vivo; details: rat; for Blood uptake (blood assumed 7% of body weight) / Heart uptake / Kidney uptake / Liver uptake / Lung uptake / Muscle uptake (muscle assumed 40% of body weight) / Skin uptake / Spleen uptake / Thyroid uptake / Brain uptake: iv
Experimental: While under ether anesthesia, each rat was injected in the femoral vein with 0.2 mL saline solution containing [^123 I]I-TBZ (1-5uCi) either racemic mixture, peak-A or peak-B. The rats were sacrificed at various time points postinjection by cardiac excision. The tissues were weighed and the radioactivity was measured with a Canberra gamma counter (Model 5000). The percent dose per organ was calculated by a comparison of the tissue counts to suitably diluted aliquots of the injected material. Total activities of blood and muscle were calculated assuming that they were 7% and 40% of total body weight, respectively Results are presented in Tables 3, 4A and 4B.

[6] = Stability of radiolabeled compound at room temperature; type: physicochemical
Experimental: The […] labeled iodovinYl-TBZ derivative ([^123 I]-TBZ, 2b) was prepared by an iododestannylation reaction. Aqueous hydrogen peroxide (1 mg/mL EtOH), 200 uL of 0.1 N HCl and 5 mCi [^123 I]sodium iodide were combined in a sealed vial. The reaction was allowed to proceed at room temperature for 20 min, after which it was terminated by addition of 0.1 mL sodium bisulfite (300 mg/ml). The reaction was then neutralized with NaHCO3 and extracted with ethyl acetate (3×1 mL). The combined organic layers were dried under nitrogen and the desired product was purified through HPLC on a reverse phase column (PRP-1, Hamilton) eluting with a isocratic solvent of 90% acetonitrile-10% buffer (5 mM 3,3'-dimethylglutaric acid, pH 7.0) and a flow rate of 1 mL/min. The radiochemical purity was analyzed by the above chromatographic system and the purified [^123 I] product (yield 50%, purity >98%) was obtained for animal experiments. The radiolabeled [^123 I]I-TBZ is stable at room temperature for up to 15 h.

[7] = cerebellum, read-out: Regional brain uptake, cerebellum
[8] = cortex, read-out: Regional brain uptake, cortex
[9] = hippocampus, read-out: Regional brain uptake, hippocampus
[10] = striatum, read-out: Regional brain uptake, striatum

SMILES: COc1cc2c(cc1OC)C1CC(=O)C(CC(C)C)CN1CC2 (stereo not shown) [TBZ, 3-(2-methylpropyl)-9,10-dimethoxy-1,3,4,6,7,11b-hexahydro-2H-benzo[a]quinolizin-2-one]
Duration of depletion of catecholamines and serotonin in the brain (in words) [1]: shorter duration
Irreversible damage to storage mechanism / neurons (in words) [1]: do not cause irreversible damage to neurons
Effect on tardive dyskinesia in patients (in words) [2]: improved tardive dyskinesia

SMILES: COc1cc2c(cc1OC)C1CC(OC(C)=O)C(CC(C)C)CN1CC2 (stereo not shown) [acetyl derivative of dihydro-TBZ]
binding affinity for the transporter (in words) [3]: retain high affinity

Regional distribution / selectivity in rat brain (in words) ([4]; listed as [^123 I]-2b): did not exhibit any selectivity
Regional distribution / selectivity in rat brain (in words) ([4]; listed as [^123 I]I-TBZ (2b)): exhibits no regional selectivity
Regional brain uptake, cerebellum ([4]; 60 min): 0.14 ± 0.04 % Dose/g
Regional brain uptake, cortex ([4]; 60 min): 0.14 ± 0.04 % Dose/g
Regional brain uptake, hippocampus ([4]; 60 min): 0.14 ± 0.02 % Dose/g
Regional brain uptake, striatum ([4]; 60 min): 0.15 ± 0.03 % Dose/g
Regional brain uptake, cerebellum ([4]; 120 min): 0.14 ± 0.003 % Dose/g
Regional brain uptake, cortex ([4]; 120 min): 0.15 ± 0.09 % Dose/g
Regional brain uptake, hippocampus ([4]; 120 min): 0.12 ± 0.04 % Dose/g
Regional brain uptake, striatum ([4]; 120 min): 0.12 ± 0.04 % Dose/g
tissue uptake at 2 min [4, 7]: 0.5 ± 0.13 %ID/g
tissue uptake at 0.5 h [4, 7]: 0.17 ± 0.03 %ID/g
tissue uptake at 4 h [4, 7]: 0.051 ± 0.014 %ID/g
tissue uptake at 6 h [4, 7]: 0.025 ± 0.0002 %ID/g
tissue uptake at 16 h [4, 7]: 0.0063 ± 0.001 %ID/g
tissue uptake at 2 min [4, 8]: 0.55 ± 0.24 %ID/g
tissue uptake at 0.5 h [4, 8]: 0.2 ± 0.02 %ID/g
tissue uptake at 4 h [4, 8]: 0.052 ± 0.021 %ID/g
tissue uptake at 6 h [4, 8]: 0.022 %ID/g
tissue uptake at 16 h [4, 8]: 0.0061 ± 0.0013 %ID/g
tissue uptake at 2 min [4, 9]: 0.58 ± 0.16 %ID/g
tissue uptake at 0.5 h [4, 9]: 0.21 ± 0.02 %ID/g
tissue uptake at 4 h [4, 9]: 0.048 ± 0.015 %ID/g
tissue uptake at 6 h [4, 9]: 0.028 ± 0.0064 %ID/g
tissue uptake at 16 h [4, 9]: 0.0051 ± 0.002 %ID/g
tissue uptake at 2 min [4, 10]: 0.54 ± 0.21 %ID/g
tissue uptake at 0.5 h [4, 10]: 0.21 ± 0.006 %ID/g
tissue uptake at 4 h [4, 10]: 0.056 ± 0.014 %ID/g
tissue uptake at 6 h [4, 10]: 0.024 ± 0.0029 %ID/g
tissue uptake at 16 h [4, 10]: 0.0062 ± 0.0026 %ID/g
Blood uptake (blood assumed 7% of body weight) ([5]; 2 min): 5.99 ± 2.54 % Dose/organ
Heart uptake ([5]; 2 min): 1.33 ± 0.19 % Dose/organ
Kidney uptake ([5]; 2 min): 4.18 ± 0.46 % Dose/organ
Liver uptake ([5]; 2 min): 11.1 ± 1.22 % Dose/organ
Lung uptake ([5]; 2 min): 4.44 ± 1.44 % Dose/organ
Muscle uptake (muscle assumed 40% of body weight) ([5]; 2 min): 6.93 ± 0.12 % Dose/organ
Skin uptake ([5]; 2 min): 4.08 ± 2.32 % Dose/organ
Spleen uptake ([5]; 2 min): 0.28 ± 0.04 % Dose/organ
Thyroid uptake ([5]; 2 min): 0.06 ± 0.02 % Dose/organ
Brain uptake ([5]; 2 min, listed as [^123 I]I-TBZ (2b)): 0.92 % Dose/organ
Brain uptake ([5]; 2 min, listed as [^123 I]I-TBZ racemic mixture): 0.92 ± 0.13 % Dose/organ
Blood uptake (blood assumed 7% of body weight) ([5]; 30 min): 1.84 ± 0.17 % Dose/organ
Heart uptake ([5]; 30 min): 0.34 ± 0.02 % Dose/organ
Kidney uptake ([5]; 30 min): 1.55 ± 0.21 % Dose/organ
Liver uptake ([5]; 30 min): 9.75 ± 1.83 % Dose/organ
Lung uptake ([5]; 30 min): 1.02 ± 0.14 % Dose/organ
Muscle uptake (muscle assumed 40% of body weight) ([5]; 30 min): 20.18 ± 2.19 % Dose/organ
Skin uptake ([5]; 30 min): 11.53 ± 2.54 % Dose/organ
Spleen uptake ([5]; 30 min): 0.29 ± 0.03 % Dose/organ
Thyroid uptake ([5]; 30 min): 0.03 ± 0.005 % Dose/organ
Brain uptake ([5]; 30 min, listed as [^123 I]I-TBZ (2b)): 0.36 % Dose/organ
Brain uptake ([5]; 30 min, listed as [^123 I]I-TBZ racemic mixture): 0.36 ± 0.05 % Dose/organ
Blood uptake (blood assumed 7% of body weight) ([5]; 60 min): 2.46 ± 0.56 % Dose/organ
Brain uptake ([5]; 60 min): 0.28 ± 0.05 % Dose/organ
Heart uptake ([5]; 60 min): 0.35 ± 0.06 % Dose/organ
Kidney uptake ([5]; 60 min): 1.47 ± 0.22 % Dose/organ
Liver uptake ([5]; 60 min): 8.57 ± 0.41 % Dose/organ
Lung uptake ([5]; 60 min): 1.47 ± 0.64 % Dose/organ
Muscle uptake (muscle assumed 40% of body weight) ([5]; 60 min): 14.9 ± 1.77 % Dose/organ
Skin uptake ([5]; 60 min): 6.39 ± 2.37 % Dose/organ
Spleen uptake ([5]; 60 min): 0.37 ± 0.10 % Dose/organ
Thyroid uptake ([5]; 60 min): 0.05 ± 0.002 % Dose/organ
Blood uptake (blood assumed 7% of body weight) ([5]; 120 min): 2.16 ± 0.21 % Dose/organ
Brain uptake ([5]; 120 min): 0.16 ± 0.03 % Dose/organ
Heart uptake ([5]; 120 min): 0.24 ± 0.06 % Dose/organ
Kidney uptake ([5]; 120 min): 0.97 ± 0.13 % Dose/organ
Liver uptake ([5]; 120 min): 6.71 ± 0.84 % Dose/organ
Lung uptake ([5]; 120 min): 0.78 ± 0.43 % Dose/organ
Muscle uptake (muscle assumed 40% of body weight) ([5]; 120 min): 15.4 ± 4.17 % Dose/organ
Skin uptake ([5]; 120 min): 7.05 ± 1.52 % Dose/organ
Spleen uptake ([5]; 120 min): 0.20 ± 0.06 % Dose/organ
Thyroid uptake ([5]; 120 min): 0.08 ± 0.05 % Dose/organ
Blood uptake (blood assumed 7% of body weight) ([5]; 240 min): 1.82 ± 0.26 % Dose/organ
Brain uptake ([5]; 240 min): 0.13 ± 0.04 % Dose/organ
Heart uptake ([5]; 240 min): 0.18 ± 0.03 % Dose/organ
Kidney uptake ([5]; 240 min): 0.73 ± 0.13 % Dose/organ
Liver uptake ([5]; 240 min): 4.57 ± 0.69 % Dose/organ
Lung uptake ([5]; 240 min): 0.54 ± 0.09 % Dose/organ
Muscle uptake (muscle assumed 40% of body weight) ([5]; 240 min): 11.24 ± 2.57 % Dose/organ
Skin uptake ([5]; 240 min): 4.21 ± 0.25 % Dose/organ
Spleen uptake ([5]; 240 min): 0.18 ± 0.02 % Dose/organ
Thyroid uptake ([5]; 240 min): 0.15 ± 0.18 % Dose/organ
Blood uptake (blood assumed 7% of body weight) ([5]; 6 hr, 2 rats only): 1.58 ± 0.15 % Dose/organ
Brain uptake ([5]; 6 hr, 2 rats only): 0.05 ± 0.001 % Dose/organ
Heart uptake ([5]; 6 hr, 2 rats only): 0.11 ± 0.01 % Dose/organ
Kidney uptake ([5]; 6 hr, 2 rats only): 0.45 ± 0.03 % Dose/organ
Liver uptake ([5]; 6 hr, 2 rats only): 3.21 ± 0.28 % Dose/organ
Lung uptake ([5]; 6 hr, 2 rats only): 0.36 % Dose/organ
Muscle uptake (muscle assumed 40% of body weight) ([5]; 6 hr, 2 rats only): 6.94 ± 0.93 % Dose/organ
Skin uptake ([5]; 6 hr, 2 rats only): 4.15 ± 0.63 % Dose/organ
Spleen uptake ([5]; 6 hr, 2 rats only): 0.11 ± 0.004 % Dose/organ
Thyroid uptake ([5]; 6 hr, 2 rats only): 0.42 ± 0.15 % Dose/organ
Blood uptake (blood assumed 7% of body weight) ([5]; 16 hr): 0.42 ± 0.07 % Dose/organ
Brain uptake ([5]; 16 hr): 0.008 ± 0.001 % Dose/organ
Heart uptake ([5]; 16 hr): 0.02 ± 0.003 % Dose/organ
Kidney uptake ([5]; 16 hr): 0.12 ± 0.015 % Dose/organ
Liver uptake ([5]; 16 hr): 1.32 ± 0.096 % Dose/organ
Lung uptake ([5]; 16 hr): 0.07 ± 0.006 % Dose/organ
Muscle uptake (muscle assumed 40% of body weight) ([5]; 16 hr): 1.49 ± 0.23 % Dose/organ
Skin uptake ([5]; 16 hr): 2.04 ± 0.18 % Dose/organ
Spleen uptake ([5]; 16 hr): 0.02 ± 0.002 % Dose/organ
Thyroid uptake ([5]; 16 hr): 0.009 ± 0.004 % Dose/organ
Stable at room temperature for up to [6]: up to 15 h
SMILES: COc1cc2c(cc1OC)C1CC(O)(C=C[123I])C(CC(C)C)CN1CC2 (racemic) [Compound 2b]
Crossing of the intact blood brain barrier and localization in the brain (in words) [5]: can cross the intact blood brain barrier and localize in the brain

SMILES: COC(=O)[C@H]1[C@H]2C[C@@H]3c4[nH]c5cc(OC)ccc5c4CCN3C[C@H]2C[C@@H](OC(=O)c2cc(OC)c(OC)c(OC)c2)[C@@H]1OC [Reserpine]
Irreversible damage to storage mechanism / neurons (in words) [1]: the storage mechanism is irreversibly damaged
